Literature values, collected in paper PMC6282790, “Incorporating physiologically relevant mobile phases in micellar liquid chromatography for the prediction of human intestinal absorption” (Biomedical Chromatography, 2018).
Where two headings read alike, the source gives them in different places. Each block holds one molecule with its values, some of them ahead of it.

Experiments:
[1] = set-up: method as in https://pubchem.ncbi.nlm.nih.gov/, December 2014; unit not given beside the values; conditions: literature values; ref https://pubchem.ncbi.nlm.nih.gov/, December 2014
[2] = human intestinal absorption
[3] = in 0.15 M NaCl
[4] = ref Castillo‐Garit et al. (2014)

SMILES: CN/C(=N/CCSCc1nc[nH]c1C)NC#N [Cimetidine, cimetidine]
PSA [1]: 88.89
Experimental. %HIA ([2]; ref Castillo‐Garit et al. (2014), Linnankoski, Mäkelä, Ranta, Urtti, & Yliperttula (2006)): 68%

SMILES: CC(C)Cc1ccc(C(C)C(=O)O)cc1 (stereo not shown) [Ibuprofen, ibuprofen]
PSA [1]: 37.3
Experimental. %HIA ([2]; ref Newby et al. (2015)): 98%

SMILES: C[C@H](CCC(=O)[O-])[C@H]1CC[C@H]2[C@@H]3[C@H](O)C[C@@H]4C[C@H](O)CC[C@]4(C)[C@H]3C[C@H](O)[C@]12C.[Na+] [NaC, sodium cholate]
CMC ([3]; ref Reis et al., 2004): 7.5 mM

SMILES: C[C@H](CCC(=O)NCC(=O)[O-])[C@H]1CC[C@H]2[C@@H]3[C@H](O)C[C@@H]4C[C@H](O)CC[C@]4(C)[C@H]3C[C@H](O)[C@]12C.[Na+] [NaGC, sodium glycocholate]
CMC ([3]; ref Natalini et al., 2014): 9 mM

SMILES: C[C@H](CCC(=O)NCC(=O)[O-])[C@H]1CC[C@H]2[C@@H]3CC[C@@H]4C[C@H](O)CC[C@]4(C)[C@H]3C[C@H](O)[C@]12C.[Na+] [NaGDC, sodium glycodeoxycholate]
CMC ([3]; ref Natalini et al., 2014): 2.2 mM

SMILES: C[C@H](CCC(=O)NCCS(=O)(=O)O)[C@H]1CC[C@H]2[C@@H]3[C@H](O)C[C@@H]4C[C@H](O)CC[C@]4(C)[C@H]3C[C@H](O)[C@]12C [NaTC, sodium taurocholate]
CMC ([3]; ref Natalini et al., 2014): 4 mM

SMILES: C[C@H](CCC(=O)NCCS(=O)(=O)[O-])[C@H]1CC[C@H]2[C@@H]3CC[C@@H]4C[C@H](O)CC[C@]4(C)[C@H]3C[C@H](O)[C@]12C.[Na+] [NaTDC, sodium taurodeoxycholate]
CMC ([3]; ref Natalini et al., 2014): 2.4 mM

SMILES: O=C(O)c1cccnc1 [Nicotinic acid, nicotinic acid]
Experimental. %HIA ([2]; ref Newby et al. (2015)): 94%

SMILES: O=C(O)c1ccccc1O [Salicylic acid, salicylic acid]
PSA [1]: 57.5
Experimental. %HIA ([2]; ref Raevsky (2004)): 99%

SMILES: CC(C)(C)NCC(O)c1cc(O)cc(O)c1 (stereo not shown) [Terbutaline, terbutaline]
PSA [1]: 72.7
Experimental. %HIA ([2]; ref Grès et al. (1998)): 25%

SMILES: Cn1c(=O)c2[nH]cnc2n(C)c1=O [Theophylline, theophylline]
PSA [1]: 69.3
Experimental. %HIA ([2]; ref Kansy, Senner, & Gubernator (1998)): 98%

Next, values leading:

PSA [1]: 49.3
Experimental. %HIA [2, 4]: 100%
SMILES: CC(=O)Nc1ccc(O)cc1 [Acetaminophen, acetaminophen]

PSA [1]: 63.6
Experimental. %HIA [2, 4]: 82%
SMILES: CC(=O)Oc1ccccc1C(=O)O [Acetylsalicylic acid, acetyl salicylic acid]

PSA [1]: 46.3
Experimental. %HIA ([2]; ref Dressman, Amidon, & Fleisher (1985), Varma, Sateesh, & Panchagnula (2005)): 84%
SMILES: NC(=O)N1c2ccccc2C=Cc2ccccc21 [Carbamazepine, carbamazepine]

Experimental. %HIA ([2]; ref Veber et al. (2002)): 54%
SMILES: O=C(O)Cc1ccccc1Nc1c(Cl)cccc1Cl [Diclofenac, diclofenac]

PSA [1]: 46.5
Experimental. %HIA ([2]; ref Hou, Wang, Zhang, & Xu (2007)): 85%
SMILES: CC(C(=O)O)c1cccc(Oc2ccccc2)c1 (stereo not shown) [Fenoprofen, fenoprofen]

PSA [1]: 81.6
SMILES: OC(Cn1cncn1)(Cn1cncn1)c1ccc(F)cc1F [Fluconazole, fluconazole]

PSA [1]: 37.3
Experimental. %HIA ([2]; ref Raevsky (2004)): 92%
SMILES: CC(C(=O)O)c1ccc(-c2ccccc2)c(F)c1 (stereo not shown) [Flurbiprofen, flurbiprofen]

PSA [1]: 54.4
SMILES: CC(C(=O)O)c1cccc(C(=O)c2ccccc2)c1 (stereo not shown) [Ketoprofen, ketoprofen]

Experimental. %HIA [2, 4]: 94%
SMILES: COc1ccc2cc([C@H](C)C(=O)O)ccc2c1 [Naproxen, naproxen]

PSA [1]: 40.6
Experimental. %HIA ([2]; ref Hou et al. (2007), Veber et al. (2002)): 94%
SMILES: CCCCC1C(=O)N(c2ccccc2)N(c2ccccc2)C1=O [Phenylbutazone, phenylbutazone]

PSA [1]: 57.4
Experimental. %HIA ([2]; ref Newby et al. (2015)): 92%
SMILES: CN(C)CCc1c[nH]c2ccc(C[C@H]3COC(=O)N3)cc12 [Zolmitriptan, zolmitriptan]
